Starred links: 1 amine or outer side, 2 acyl side, 3 side chain; linkers in the order of their positions; H or OH if unused. Positions of bridges follow the written chain, without caps; N, C: chain ends. Residues, ends and D or L forms follow the SMILES beside them. mXylylene = c1cc(C[*:1])cc(C[*:2])c1
Target: T1, Wuhan variant RBD-Fc / ACE2 interaction (Homo sapiens, UniProt Q9BYF1)
T1 construct: purchased RayBiotech
Assay: biochemical
Settings: read-out: percentage of inhibition of RBD binding to ACE2

Q: How did the inhibition at 100 µM turn out when `C[C@@H](O)[C@@H]1NC(=O)[C@@H]2CCCN2C(=O)[C@H](CCC(N)=O)NC(=O)[C@@H](N)CSCc2cccc(c2)CSC[C@@H](C(N)=O)NC(=O)[C@H](CCC(N)=O)NC(=O)[C@H](Cc2c[nH]c3ccccc23)NC(=O)CNC(=O)[C@H](CCCCN)NC(=O)CNC(=O)[C@H](CC(N)=O)NC1=O` [c9_05] (H-CQPTNGKGWQC-NH2; linker 1-11 via mXylylene) was run?
A: 78%
